{"source": "patent US20240299416A1", "about": "“TREATMENT OF NF-kB-MEDIATED DISEASE” (ReveraGen BioPharma, Inc., priority 2021, published 2024)", "key": {"[1]": {"biological_target": "T1, mineralocorticoid receptor (Homo sapiens, UniProt P08235)", "T1 sequence (P08235 1-984)": "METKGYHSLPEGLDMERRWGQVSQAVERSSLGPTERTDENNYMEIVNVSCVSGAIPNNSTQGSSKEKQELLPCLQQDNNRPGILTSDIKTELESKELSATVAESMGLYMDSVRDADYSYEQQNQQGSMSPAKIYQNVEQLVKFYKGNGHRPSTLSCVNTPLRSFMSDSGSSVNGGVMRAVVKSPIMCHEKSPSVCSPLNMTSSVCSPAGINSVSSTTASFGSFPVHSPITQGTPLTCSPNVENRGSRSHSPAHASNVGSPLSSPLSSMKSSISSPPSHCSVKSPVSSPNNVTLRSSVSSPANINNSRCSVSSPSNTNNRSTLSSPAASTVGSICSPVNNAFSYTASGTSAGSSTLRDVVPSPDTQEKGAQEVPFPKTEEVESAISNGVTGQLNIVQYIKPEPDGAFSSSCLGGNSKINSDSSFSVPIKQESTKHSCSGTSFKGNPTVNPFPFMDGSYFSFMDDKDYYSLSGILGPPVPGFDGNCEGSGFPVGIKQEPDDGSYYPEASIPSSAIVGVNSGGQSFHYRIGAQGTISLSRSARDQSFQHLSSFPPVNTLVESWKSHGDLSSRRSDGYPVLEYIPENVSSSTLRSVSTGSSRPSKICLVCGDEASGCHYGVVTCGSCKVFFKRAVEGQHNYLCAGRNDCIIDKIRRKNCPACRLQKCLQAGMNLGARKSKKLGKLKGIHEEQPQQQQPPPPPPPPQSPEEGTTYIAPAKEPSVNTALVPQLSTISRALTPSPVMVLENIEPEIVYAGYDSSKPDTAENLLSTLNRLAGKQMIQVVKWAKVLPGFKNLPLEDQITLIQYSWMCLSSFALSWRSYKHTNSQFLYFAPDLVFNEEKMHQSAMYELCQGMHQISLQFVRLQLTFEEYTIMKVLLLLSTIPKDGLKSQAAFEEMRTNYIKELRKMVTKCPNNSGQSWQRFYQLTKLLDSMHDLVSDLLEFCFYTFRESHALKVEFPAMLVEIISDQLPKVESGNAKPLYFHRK", "conditions": "cited from earlier work"}, "[2]": {"conditions": "Griggs et al. 2016 double-blind trial, 12 months treatment, cited from earlier work"}, "[3]": {"conditions": "cited from earlier work"}, "[4]": {"assay": "VBP15-004 adverse events, Treatment Period 2 / cross-over", "type": "in vivo, human", "conditions": "on prednisone (to Week 24), subjects later switched to vamorolone 6 mg/kg/day", "protocol": "(§1) Subjects already on vamorolone continued on the allocated dose level. Efficacy at Week 48 was assessed by Time to Stand ([…]) velocity, 6-Minute Walk Test (6MWT), Time to Run/Walk 10 meters (TTRW) velocity, and North Star Ambulatory Assessment (NSAA). […] In contrast, the persistence of effects with vamorolone 2 mg/kg/day was less pronounced for some parameters. The safety profile was consistent for subjects who continued on the same dose of vamorolone throughout the study, with no increase in frequency or severity of adverse events being observed over time. […] In addition, vamorolone treatment at both doses reversed the growth impairment seen during prednisone treatment and was associated with fewer adverse events, including those associated with corticosteroid use."}, "[5]": {"system": "osteocalcin, P1NP, CTX", "assay": "VBP15-004 bone turnover biomarkers", "type": "in vivo, human"}, "[6]": {"system": "boys with DMD", "assay": "VBP15-004 efficacy at Week 48", "type": "in vivo, human", "conditions": "prednisone, Treatment Period 1", "protocol": "as §1"}, "[7]": {"assay": "Growth (height percentile) and BMI vs external comparators", "type": "in vivo, human", "conditions": "CINRG prednisone trial, 0.75 mg/kg/day daily; for Mean BMI z-score, change from baseline (SD) / Mean BMI z-score, baseline value (SD): 0.75 mg/kg/day", "protocol": "As with the CINRG DNHS comparators, group-matching criteria were prespecified in the iSAP, and 2 independent statisticians carried out the participant matching. […] There was no corresponding 12-month assessment in vamorolone-treated participants. (Assessments of vamorolone-treated trial participants were 0, 3, 6, and 18 months).\nStanding height and weight were assessed at each study visit. Height z-score, body mass index (BMI; kg/m^2), and BMI z-score were calculated centrally. AE reporting was done per protocol in the vamorolone trials.\nThe current study is the first to evaluate the longer-term tolerability, efficacy, and safety of vamorolone in DMD. […] Given the variable timing of dose escalations, it was prespecified that initial analyses of drug-related efficacy and safety would be limited to those participants who had 18 months of treatment with 2.0 mg/kg/day vamorolone or more (dose group C+dose group D; n=23). Outcomes for these participants were compared to a group-matched cohort from the CINRG DNHS over 18 months (corticosteroid-naïve, n=19; corticosteroid-treated, n=68). Participants were matched for age and treatment period (±1 month), matching criteria were prespecified in the statistical analysis plan. Two independent statisticians carried out the matching.\nParticipants in the corticosteroid-treated CINRG DNHS group were treated for at least 18 months, but the total duration, dose, and regimens varied."}, "[8]": {"assay": "VBP15-004 height and BMI z-scores, 24 to 48 weeks", "type": "in vivo, human", "conditions": "for BMI mean z-score: prednisone", "protocol": "(§2) The second period of 24 weeks, where all participants receive vamorolone treatment on either of the two dose levels, will continue to capture additional longer-term safety and tolerability data.\nSubjects already on vamorolone continued on the allocated dose level. Efficacy at Week 48 was assessed by Time to Stand (TTSTAND) velocity, 6-Minute Walk Test (6MWT), Time to Run/Walk 10 meters (TTRW) velocity, and North Star Ambulatory Assessment (NSAA). […] In contrast, the persistence of effects with vamorolone 2 mg/kg/day was less pronounced for some parameters. The safety profile was consistent for subjects who continued on the same dose of vamorolone throughout the study, with no increase in frequency or severity of adverse events being observed over time. […] In addition, vamorolone treatment at both doses reversed the growth impairment seen during prednisone treatment and was associated with fewer adverse events, including those associated with corticosteroid use."}, "[9]": {"assay": "VBP15-004 adverse events at 24 weeks", "design": "species or system human", "conditions": "male, human, in vivo, 24 weeks", "description": "In certain embodiments, the symptom may be an adverse event of special interest (AESI). In this context, AESIs are prespecified based on pre-defined MedDRA search criteria for eleven AESI categories for the corticosteroid class and then further stratified into AESI of at least moderate severity. The symptoms for treating DMD with corticosteroids include, but is not limited to, behavior adverse events, blood glucose related problems, gastrointestinal symptoms, increased arterial blood pressure, immune suppression/infections, skin/hair changes, cataracts/glaucoma, cushingoid features, weight gain, bone fractures, slow growth.\nas §2"}, "[10]": {"conditions": "Griggs et al. 2016, 0.9 mg/kg/day deflazacort, 0.75 mg/kg/day prednisone"}}, "note": "Where two headings read alike, the source gives them in different places.", "data": [{"smiles": "CC(=O)OCC(=O)[C@@]12N=C(C)O[C@@H]1C[C@H]1[C@@H]3CCC4=CC(=O)C=C[C@]4(C)[C@H]3[C@@H](O)C[C@@]12C", "note": "[Deflazacort, deflazacort]", "values": [{"measurement": "activity at the mineralocorticoid receptor", "setting": "[1]", "value": "agonists"}, {"measurement": "change in height percentiles for age", "setting": "[2]", "value": "−11.4"}, {"measurement": "change in height percentiles for age", "setting": "[2]; listed as deflazacort", "value": "−11.43"}, {"measurement": "Incidence of Cushingoid", "setting": "[3]; CINRG DNHS", "value": 72, "unit": "%"}, {"measurement": "Incidence of behavior change", "setting": "[3]; CINRG DNHS", "value": 33, "unit": "%"}, {"measurement": "Incidence of weight gain", "setting": "[3]; CINRG DNHS", "value": 63, "unit": "%"}, {"measurement": "Incidence of Cushingoid", "setting": "[3]; [10]", "value": 60.3, "unit": "%"}, {"measurement": "Incidence of behavior change", "setting": "[3]; [10]", "value": 9, "unit": "%"}, {"measurement": "Incidence of hypertrichosis/hirsutism", "setting": "[3]; [10]", "value": 35, "unit": "%"}, {"measurement": "Incidence of weight gain", "setting": "[3]; [10]", "value": 27.9, "unit": "%"}]}, {"smiles": "C[C@]12C=CC(=O)C=C1CC[C@@H]1[C@@H]2C(=O)C[C@@]2(C)[C@H]1CC[C@]2(O)C(=O)CO", "note": "[Prednisone, prednisone]", "values": [{"measurement": "activity at the mineralocorticoid receptor", "setting": "[1]", "value": "agonists"}, {"measurement": "number of adverse events", "setting": "[4]", "value": 70}, {"measurement": "number of adverse events reported as behavioral disorders", "setting": "[4]", "value": 15}, {"measurement": "number of adverse events typically associated with corticosteroids", "setting": "[4]", "value": 40}, {"measurement": "Osteocalcin, mean (SEM) change at Week 24", "setting": "[5]", "value": "−15.2 (2.7) ng/ml"}, {"measurement": "Procollagen 1 N-Terminal Propeptide (P1NP), mean (SEM) change at Week 24", "setting": "[5]; Prednisone 0.75 mg", "value": "−134 (22) ng/mL"}, {"measurement": "Type I Collagen C-Telopeptides (CTX), mean (SEM) change at Week 24", "setting": "[5]; Prednisone 0.75 mg", "value": "−300 (43) pg/mL"}, {"measurement": "effect on bone biomarkers (osteocalcin, PINP, CTX)", "setting": "[5]; Week 24, vamorolone 2.0 and 6.0 mg/kg", "value": "strongly reduce all bone biomarkers"}, {"measurement": "6MWT distance", "setting": "[6]", "value": 407, "unit": "meters"}, {"measurement": "NSAA", "setting": "[6]", "value": 25.6, "unit": "points"}, {"measurement": "TTRW velocity", "setting": "[6]", "value": 2.20, "unit": "m/s"}, {"measurement": "TTSTAND velocity", "setting": "[6]", "value": 0.28, "unit": "rises/s"}, {"measurement": "Mean BMI z-score, value (SD) at 12 months", "setting": "[7]; 12 months", "value": "1.068 (1.05)"}, {"measurement": "Mean height percentile for age, change from baseline (SD)", "setting": "[7]; 12 months", "value": "−3.76 (10.44)"}, {"measurement": "Mean height percentile for age, value (SD) at 12 months", "setting": "[7]; 12 months", "value": "26.14 (24.21)"}, {"measurement": "Mean BMI z-score, change from baseline (SD)", "setting": "[7]; 12 months", "value": "0.459 (0.407)"}, {"measurement": "Mean BMI z-score, change from baseline (SD)", "setting": "[7]; 12 months, listed as prednisone", "value": 0.46}, {"measurement": "Mean height percentile for age, baseline value (SD)", "setting": "[7]; baseline", "value": "29.89 (29.15)"}, {"measurement": "Mean BMI z-score, baseline value (SD)", "setting": "[7]; baseline", "value": "0.61 (1.27)"}, {"measurement": "Mean BMI z-score, baseline value (SD)", "setting": "[7]; baseline, listed as prednisone", "value": 0.61}, {"measurement": "height (z-score), absolute value, Mean", "setting": "[8]; PDN/VAM 6 mg, Week 24", "value": "−0.38"}, {"measurement": "change in height Z scores", "setting": "[8]; prednisone 0.75 mg/kg/day, baseline to Week 24", "value": "growth deceleration"}, {"measurement": "BMI mean z-score", "setting": "[8]; end of Treatment Period 1", "value": 1.40}, {"measurement": "BMI mean z-score", "setting": "[8]; start of Treatment Period 1", "value": 0.94}, {"measurement": "AESIs of at least moderate severity, F", "setting": "[9]", "value": 15}, {"measurement": "Abnormal behavior, any severity, F", "setting": "[9]", "value": 2}, {"measurement": "Abnormal behavior, moderate/severe, F", "setting": "[9]", "value": 1}, {"measurement": "Aggression, any severity, F", "setting": "[9]", "value": 3}, {"measurement": "Aggression, moderate/severe, F", "setting": "[9]", "value": 2}, {"measurement": "All AESIs, F", "setting": "[9]", "value": 69}, {"measurement": "All TEAEs, F", "setting": "[9]", "value": 120}, {"measurement": "Anger, any severity, F", "setting": "[9]", "value": 1}, {"measurement": "Any Behavior AESI, any severity, F", "setting": "[9]", "value": 16}, {"measurement": "Any Behavior AESI, moderate/severe, F", "setting": "[9]", "value": 8}, {"measurement": "Clinically relevant AEs, F", "setting": "[9]", "value": 19}, {"measurement": "Emotional disorder, any severity, F", "setting": "[9]", "value": 1}, {"measurement": "Emotional disorder, moderate/severe, F", "setting": "[9]", "value": 1}, {"measurement": "Initial insomnia, any severity, F", "setting": "[9]", "value": 1}, {"measurement": "Irritability, any severity, F", "setting": "[9]", "value": 1}, {"measurement": "Mood swings, any severity, F", "setting": "[9]", "value": 2}, {"measurement": "Mood swings, moderate/severe, F", "setting": "[9]", "value": 1}, {"measurement": "Personality change, any severity, F", "setting": "[9]", "value": 1}, {"measurement": "Personality change, moderate/severe, F", "setting": "[9]", "value": 1}, {"measurement": "Psychomotor hyperactivity, any severity, F", "setting": "[9]", "value": 3}, {"measurement": "Psychomotor hyperactivity, moderate/severe, F", "setting": "[9]", "value": 1}, {"measurement": "Severe TEAEs (CTCAE Grade ≥3), F", "setting": "[9]", "value": 1}, {"measurement": "Sleep disorder, any severity, F", "setting": "[9]", "value": 1}, {"measurement": "Sleep disorder, moderate/severe, F", "setting": "[9]", "value": 1}, {"measurement": "TEAEs leading to discontinuation, F", "setting": "[9]", "value": 1}, {"measurement": "clinically relevant psychiatric events, subjects", "setting": "[9]", "value": 19.4, "unit": "%"}, {"measurement": "moderate/severe behavior problems, subjects", "setting": "[9]", "value": 22.6, "unit": "%"}]}]}
